According to patent publication EP4682146A1, “COMPOSITION INCLUDING NOVEL PYRIDOINDOLE DERIVATIVE COMPOUND AS ACTIVE INGREDIENT FOR PREVENTION OR TREATMENT OF NEURODEGENERATIVE DISEASES” (Neurotarge Co., Ltd., priority 2023, dated 2024):

Each compound was assayed against T1, Tau-Synaptogyrin3 interaction (Homo sapiens, UniProt O43761+P10636) (assay: Cell-based split luciferase (NanoBit) protein complementary assay for Tau-Synaptogyrin3 interaction in stable cell line HEK293T-TK252-1E2). Conditions: HEK293T-TK252-1E2 cells, 48 hrs compound treatment, L/F value (luciferase activity/fluorescent intensity) compared to DMSO control.
T1 construct: expressed in transfected cells
T1 sequence (P10636 1-441 isoform P10636-8): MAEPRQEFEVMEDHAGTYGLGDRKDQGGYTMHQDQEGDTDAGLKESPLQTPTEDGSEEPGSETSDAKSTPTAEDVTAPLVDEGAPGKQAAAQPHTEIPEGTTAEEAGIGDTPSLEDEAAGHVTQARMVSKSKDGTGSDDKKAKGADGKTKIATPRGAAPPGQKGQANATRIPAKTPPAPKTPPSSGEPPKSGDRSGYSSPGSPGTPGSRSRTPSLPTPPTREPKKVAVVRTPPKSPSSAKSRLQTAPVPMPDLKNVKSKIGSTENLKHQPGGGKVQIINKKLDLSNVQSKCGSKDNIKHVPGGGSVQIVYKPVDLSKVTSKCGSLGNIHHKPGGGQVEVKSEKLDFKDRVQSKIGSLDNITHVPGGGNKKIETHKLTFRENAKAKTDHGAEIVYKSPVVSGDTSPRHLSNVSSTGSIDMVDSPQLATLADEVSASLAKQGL
T1 sequence (O43761 whole entry): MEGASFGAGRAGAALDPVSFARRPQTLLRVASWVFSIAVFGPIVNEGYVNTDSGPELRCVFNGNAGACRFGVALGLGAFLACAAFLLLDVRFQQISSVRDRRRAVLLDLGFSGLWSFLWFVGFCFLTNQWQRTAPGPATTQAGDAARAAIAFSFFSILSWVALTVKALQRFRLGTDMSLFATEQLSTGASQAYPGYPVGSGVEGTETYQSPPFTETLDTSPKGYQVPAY
Protocol: Live cell luciferase assay: Live cell luciferase activity was measured using NanoGlo® Live Cell Assay System (Cat# N2012. Promega, WI, USA), according to manufacturer's instruction. All microplate-based measurement was performed with BioTek Synergy H1 (Agilent. CA, USA).
For producing HEK293T-TK252 stable cell line for screening, BglII-linearized pTK252 was transfected to HEK293T cells. After 24 hrs transfection, the transfected cells were cultured in the culture media containing 1 µg/ml puromycin (10 mM in DMSO, Cat# J61278/ Alfa Aesar. ThermoFisher Korea, Seoul, Korea) for 9 days. Regular media change was performed in every 3 days with fresh puromycin of indicating concentration during the whole selection period. The selected cells were trypsinized and diluted to 5 cells/ml and seeded to 4x 96 well cell culture plates (100 µl/well), and cultured with the cell culture media containing 1 µg/ml puromycin for 11 days. 18 wells that contained only GFP-positive cells were selected for expansion, and cultured with the cell culture media containing 0.1-0.2 µg/ml puromycin for 14 days. 10 clones were discarded during the expansion due to emerging of non-GFP cells, and 8 clones were validated. The selected clone (1E2) was cultured with the cell culture media containing 0.5 µg/ml puromycin for further experiments.
3 µmol of 1,728 compounds were purchased from Otava Chemicals MB (Vilniaus, Lithuania), dissolved into 300 µl DMSO (10 mM) and stored at -80°C. 4x10^4 HEK293T-TK252-1E2 cells were seeded with 100 µl of the cell culture media into 96 white well cell culture plates (Cat# 30196. SPL, Seoul, Korea), 48 hrs prior to compound treatment. For 10 µM compound treatment, 10 mM compound stock was diluted to 50 µM with the cell culture media, and 25 µl of the diluted compound was added to the designated wells of the 96 well plates. For dose-response experiments, the amount of compounds for dilution was adjusted to fit the volume indicated above. After 48 hrs compound treatment, the cells were washed once with OptiMEM and live cell luciferase activity, fluorescent intensity and fluorescence area scan was measured.
1,728 compounds were treated at 10 µM to HEK293T-TK252-1E2 cells and incubated for 48 hrs. […] Single wash step with culture media without FBS was included before measurement to discard dead cells and to remove FBS that affects luciferase assay. […] Fluorescent intensity was taken for normalization, which is expected to be proportion to the cell number at the measuring point. L/F value which is luciferase activity normalized with fluorescent intensity (L/F = Luciferase activity/ Fluorescent intensity) was calculated for all measurements and compared to L/F value of DMSO controls to calculated the size of inhibitory effect. […] Fluorescence area scan (FA) performed right after luciferase activity and fluorescent intensity measurement, to validate total remaining fluorescent cells in a well as a proxy to the cellular toxicity. FA value was in proportion to WST assay results (data not shown), and average CV of triplicates of all measurements was 0.04.
61 compounds were further tested for dose-response profile, based on inhibitory effect that was measured by L/F value (<60%) and FA-based cell viability (>90%) at 10 µM compared to DMSO control. 10 compounds were considered as hit compounds through three times of reproduction.
In the case of `O=C(c1cccc(Cl)c1)N1CCc2[nH]c3ccc(-c4ccccc4)cc3c2C1` [Formula 13, (3-chlorophenyl)(8-phenyl-1,3,4,5-tetrahydro-2H-pyrido[4,3-b]indol-2-yl)methanone], the IC50 is reported as 12 to 25 µM.
For `O=C(c1ccc(C(F)(F)F)cc1)N1CCc2[nH]c3ccc(-c4ccccc4)cc3c2C1` [Formula 12, (8-phenyl-1,3,4,5-tetrahydro-2H-pyrido[4,3-b]indol-2-yl)(4-(trifluoromethyl)phenyl)methanone], the IC50 was 12 to 25 µM.
Compound `Cc1ccc(C(=O)N2CCc3[nH]c4ccc(-c5ccccc5)cc4c3C2)cn1` [Formula 5, (6-methylpyridin-3-yl)(8-phenyl-1,3,4,5-tetrahydro-2H-pyrido[4,3-b]indol-2-yl)methanone] has an IC50 of 3 to 12 µM.
In the case of `N#Cc1ccc(-c2ccc3[nH]c4c(c3c2)CN(C(=O)c2ccccc2)CC4)cc1` [Formula 50], the IC50 is reported as < 3 µM.
In the case of `Cc1ccc(-c2ccc3c(c2)c2c(n3C)CCN(C(=O)c3ccccc3)C2)cc1` [Formula 43, (5-methyl-8-(p-tolyl)-1,3,4,5-tetrahydro-2H-pyrido[4,3-b]indol-2-yl)(phenyl)methanone], the IC50 is reported as 3 to 12 µM.
`O=C(c1ccccc1)N1CCc2[nH]c3ccc(-c4ccc(Cl)cc4)cc3c2C1` [Formula 70, (8-(4-chlorophenyl)-1,3,4,5-tetrahydro-2H-pyrido[4,3-b]indol-2-yl)(phenyl)methanone] was tested, and the IC50 was < 3 µM.
Work on `Cc1cccc(C(=O)N2CCc3[nH]c4ccc(-c5ccc(C#N)cc5)cc4c3C2)c1` [Formula 53] yielded an IC50 of 3 to 12 µM.
Compound `Cc1ccc(-c2ccc3[nH]c4c(c3c2)CN(C(=O)C2CCCCC2)CC4)cc1` [Formula 36, Cyclohexyl(8-(p-tolyl)-1,3,4,5-tetrahydro-2H-pyrido[4,3-b]indol-2-yl)methanone] has an IC50 of 3 to 12 µM.
In the case of `CN(C)c1ccc(-c2ccc3[nH]c4c(c3c2)CN(C(=O)c2ccccc2)CC4)cc1` [Formula 73, (8-(4-(Dimethylamino)phenyl)-1,3,4,5-tetrahydro-2H-pyrido[4,3-b]indol-2-yl)(phenyl)methanone], the IC50 is reported as 3 to 12 µM.
For `N#Cc1ccccc1-c1ccc2[nH]c3c(c2c1)CN(C(=O)c1ccccc1)CC3` [Formula 61, 2-(2-benzoyl-2,3,4,5-tetrahydro-1H-pyrido[4,3-b]indol-8-yl)benzonitrile], the IC50 was 3 to 12 µM.
For `Cc1ccc(C(=O)N2CCc3[nH]c4ccc(-c5ccccc5C#N)cc4c3C2)cn1` [Formula 60, 2-(2-(6-Methylnicotinoyl)-2,3,4,5-tetrahydro-1H-pyrido[4,3-b]indol-8-yl)benzonitrile], the IC50 was 3 to 12 µM.
With `CCn1c2c(c3cc(-c4ccc(C)cc4)ccc31)CN(C(=O)c1cccnc1)CC2` [Formula 46, (5-ethyl-8-(p-tolyl)-1,3,4,5-tetrahydro-2H-pyrido[4,3-b]indol-2-yl)(pyridin-3-yl)methanone] the IC50 was 3 to 12 µM.
`Cc1ccc(-c2ccc3[nH]c4c(c3c2)CN(C(=O)c2ccccc2)CC4)cn1` [Formula 47, (8-(6-methylpyridin-3-yl)-1,3,4,5-tetrahydro-2H-pyrido[4,3-b]indol-2-yl)(phenyl)methanone] gave an IC50 of 3 to 12 µM.
`O=C(c1cccnc1)N1CCc2[nH]c3ccc(-c4ccc(F)cc4)cc3c2C1` [Formula 65, (8-(4-fluorophenyl)-1,3,4,5-tetrahydro-2H-pyrido[4,3-b]indol-2-yl)(pyridin-3-yl)methanone] was tested, and the IC50 was < 3 µM.
Compound `O=C(c1cccnc1)N1CCc2[nH]c3cc(-c4ccccc4)ccc3c2C1` [Formula 35, (7-phenyl-1,3,4,5-tetrahydro-2H-pyrido[4,3-b]indol-2-yl)(pyridin-3-yl)methanone] has an IC50 of 3 to 12 µM.
`O=C(c1cccnc1)N1CCc2[nH]c3ccc(-c4ccccc4)cc3c2C1` [Formula 2, (8-phenyl-1,3,4,5-tetrahydro-2H-pyrido[4,3-b]indol-2-yl)(pyridin-3-yl)methanone] showed an IC50 of 3 to 12 µM.
In the case of `Cc1ccc(-c2ccc3[nH]c4c(c3c2)CN(C(=O)c2cccnc2)CC4)cn1` [Formula 48, (8-(6-methylpyridin-3-yl)-1,3,4,5-tetrahydro-2H-pyrido[4,3-b]indol-2-yl)(pyridin-3-yl)methanone], the IC50 is reported as 12 to 25 µM.
Compound `Cn1ccc2c(C(=O)N3CCc4[nH]c5ccc(-c6ccccc6)cc5c4C3)cccc21` [Formula 10, (1-methyl-1H-indol-4-yl)(8-phenyl-1,3,4,5-tetrahydro-2H-pyrido[4,3-b]indol-2-yl)methanone] has an IC50 of 3 to 12 µM.
For `Cc1ccc(-c2ccc3[nH]c4c(c3c2)CN(C(=O)Nc2ccccc2)CC4)cc1` [Formula 75, N-phenyl-8-(p-tolyl)-1,3,4,5-tetrahydro-2H-pyrido[4,3-b]indole-2-carboxamide], the IC50 was 12 to 25 µM.
For `Cc1ccc(-c2ccc3[nH]c4c(c3c2)CN(C(=O)c2ccc(N(C)C)cc2)CC4)cc1` [Formula 69, (4-(Dimethylamino)phenyl)(8-(p-tolyl)-1,3,4,5-tetrahydro-2H-pyrido[4,3-b]indol-2-yl)methanone], the IC50 was 3 to 12 µM.
In the case of `Cc1ccc(-c2ccc3c(c2)c2c(n3C)CCN(C(=O)c3cccnc3)C2)cc1` [Formula 44, (5-methyl-8-(p-tolyl)-1,3,4,5-tetrahydro-2H-pyrido[4,3-b]indol-2-yl)(pyridin-3-yl)methanone], the IC50 is reported as < 3 µM.
With `COc1ccc(-c2ccc3[nH]c4c(c3c2)CN(C(=O)c2cccnc2)CC4)cc1` [Formula 63, (8-(4-Methoxyphenyl)-1,3,4,5-tetrahydro-2H-pyrido[4,3-b]indol-2-yl)(pyridin-3-yl)methanone] the IC50 was < 3 µM.
`COc1ccc(C(=O)N2CCc3[nH]c4ccc(-c5ccccc5)cc4c3C2)cc1` [Formula 17, (4-methoxyphenyl)(8-phenyl-1,3,4,5-tetrahydro-2H-pyrido[4,3-b]indol-2-yl)methanone] showed an IC50 of 3 to 12 µM.
Work on `Cc1ccccc1-c1ccc2[nH]c3c(c2c1)CN(C(=O)c1nccs1)CC3` [Formula 25, Thiazol-2-yl(8-(o-tolyl)-1,3,4,5-tetrahydro-2H-pyrido[4,3-b]indol-2-yl)methanone] yielded an IC50 of 3 to 12 µM.
`O=C(c1cncnc1)N1CCc2[nH]c3ccc(-c4ccccc4)cc3c2C1` [Formula 8, (8-phenyl-1,3,4,5-tetrahydro-2H-pyrido[4,3-b]indol-2-yl)(pyrimidin-5-yl)methanone] was tested, and the IC50 was 3 to 12 µM.
Work on `COc1ccc(-c2ccc3[nH]c4c(c3c2)CN(C(=O)c2ccccc2)CC4)cc1` [Formula 62, (8-(4-Methoxyphenyl)-1,3,4,5-tetrahydro-2H-pyrido[4,3-b]indol-2-yl)(phenyl)methanone] yielded an IC50 of 3 to 12 µM.
With `Cc1cncc(C(=O)N2CCc3[nH]c4ccc(-c5ccccc5C)cc4c3C2)c1` [Formula 22, (5-methylpyridin-3-yl)(8-(o-tolyl)-1,3,4,5-tetrahydro-2H-pyrido[4,3-b]indol-2-yl)methanone] the IC50 was 3 to 12 µM.
`CCc1ccc(C(=O)N2CCc3[nH]c4ccc(-c5ccccc5)cc4c3C2)cc1` [Formula 16, (4-ethylphenyl)(8-phenyl-1,3,4,5-tetrahydro-2H-pyrido[4,3-b]indol-2-yl)methanone] gave an IC50 of 3 to 12 µM.
`Cc1ccc(-c2ccc3[nH]c4c(c3c2)CN(C(=S)Nc2ccccc2)CC4)cc1` [Formula 74, N-phenyl-8-(p-tolyl)-1,3,4,5-tetrahydro-2H-pyrido[4,3-b]indole-2-carbothioamide] gave an IC50 of 3 to 12 µM.
`Cc1cccc(C(=O)N2CCc3[nH]c4ccc(-c5ccccc5)cc4c3C2)c1` [Formula 15, (8-phenyl-1,3,4,5-tetrahydro-2H-pyrido[4,3-b]indol-2-yl)(m-tolyl)methanone] gave an IC50 of 3 to 12 µM.
With `O=C(c1ccccc1)N1CCc2[nH]c3ccc(-c4ccccc4)cc3c2C1` [Formula 9, Phenyl(8-phenyl-1,3,4,5-tetrahydro-2H-pyrido[4,3-b]indol-2-yl)methanone] the IC50 was 3 to 12 µM.
`Cc1ccc(C(=O)N2CCc3[nH]c4ccc(-c5ccccc5C#N)cc4c3C2)cc1` [Formula 59, 2-(2-(4-Methylbenzoyl)-2,3,4,5-tetrahydro-1H-pyrido[4,3-b]indol-8-yl)benzonitrile] gave an IC50 of 3 to 12 µM.
With `O=S(=O)(c1cccnc1)N1CCc2[nH]c3cc(-c4ccccc4)ccc3c2C1` [Formula 34, 7-phenyl-2-(pyridin-3-ylsulfonyl)-2,3,4,5-tetrahydro-1H-pyrido[4,3-b]indole] the IC50 was 3 to 12 µM.
